According to US20260199367A1, “PLK1 DEGRADATION INDUCING COMPOUNDS WITH INCREASED RIGIDITY” (UPPTHERA, INC., priority 2022, published 2026):

What was measured:
Type in all cases: cell-based
PLK1 = target: T1, PLK1 (Homo sapiens, UniProt P53350); assay: Luciferase assay for PLK1 in HeLa LgBit (PLK1-HiBit KI) cell line; conditions: released after thymidine block, compound 300 nM, luminescence after 9 hours
T1 construct: endogenous in cells; host or cells: HeLa LgBit (PLK1-HiBit KI): HeLa cells stably expressing LgBit, with CRISPR/Cas9 knock-in of HiBit at the endogenous PLK1 locus
T1 sequence (P53350 whole entry): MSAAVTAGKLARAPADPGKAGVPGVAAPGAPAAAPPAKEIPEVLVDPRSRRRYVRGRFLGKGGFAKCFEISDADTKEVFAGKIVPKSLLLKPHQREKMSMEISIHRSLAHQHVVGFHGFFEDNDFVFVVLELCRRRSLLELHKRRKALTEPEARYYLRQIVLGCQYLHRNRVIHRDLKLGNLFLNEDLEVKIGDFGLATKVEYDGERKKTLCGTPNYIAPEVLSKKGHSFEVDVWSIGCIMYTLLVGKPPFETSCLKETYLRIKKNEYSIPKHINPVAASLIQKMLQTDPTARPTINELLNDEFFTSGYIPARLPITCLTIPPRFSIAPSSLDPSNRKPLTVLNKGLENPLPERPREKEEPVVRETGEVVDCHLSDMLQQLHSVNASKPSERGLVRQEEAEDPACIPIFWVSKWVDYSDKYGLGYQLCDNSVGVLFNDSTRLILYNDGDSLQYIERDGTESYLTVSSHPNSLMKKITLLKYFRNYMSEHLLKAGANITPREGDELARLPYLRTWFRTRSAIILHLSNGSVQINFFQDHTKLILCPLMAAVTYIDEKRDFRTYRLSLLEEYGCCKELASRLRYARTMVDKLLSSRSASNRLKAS
Experimental: A HeLa cell line in which the LgBit vector was transfected and expressed stably was prepared. Then, after constructing gRNA and donor to express the HiBit amino acid sequence behind the C-terminal of the PLK1 gene, which was inherent in the cell, it was inserted into the cell together with a vector capable of expressing CRISPR/Cas9. Only the cells in which the insertion was completed and knock-in had progressed were selected, sub-cultured and used.
The compounds of Examples were completely dissolved in DMSO (Sigma-Aldrich Cat. No. D2438, Lot. No. RNBL5438) and used in the experiment.
In the case of HeLa LgBit (Plk1-HiBit KI), the compounds were treated after being released after thymidine block, and the process was as follows. Thymidine (Sigma-Aldrich Cat. No. T9250-5G) was completely dissolved in ddH2O and used in the experiment. For thymidine block, the products were treated with 2 mM of thymidine and then incubated for 24 hours. For release and chemical treatment, the medium was suctioned and washed with 1×PBS. TrypLE™ was added and incubated in 37° C. CO2 incubator (Thermo Fisher Science, Cat. No. 4111) for 5 mins. Cells neutralized by adding complete media were counted through a counter. For each well of a 96-well culture plate (SPL), 3.3×10^4 cells and a total medium volume of 150 μl were seeded and incubated in a CO2 incubator.
Each cell line was incubated in a CO2 incubator for 18 hours, and Endurazine (Promega, Cat. No. N257B) was added to each well to make up 4% of the total volume. After adding compounds of Examples in a 96-well white plate (SPL) to a concentration of 300 nM, the wavelength of the plate reader (BMG Labtech, CLARIOstar Plus) was set to 470-480 nM, and then the luminescence was tracked in real time.

[1] = tested on: NCI-H526 (H526) cell line; assay: Cell viability assay for NCI-H526 cell line; conditions: Homo sapiens, NCI-H526, 120 h, 5 days, EZ-Cytox, 0.46-3000 nM
Excerpt: (§1) The NCI-H69 (hereafter H69) and NCI-H526 (hereafter H526) cell lines were purchased from Korea Cell Line Bank (KCLB, Seoul, Korea). For cell culture, RPMI 1640 (Gibco, Cat. No. 22400-089; Lot. No. 2537146), FBS (Gibco, Cat. No. 16000-044; Lot. No. 2511328P), Penicillin/Streptomycin (PS) (Gibco, Cat. No. 15140-122; Lot. No. 2441887), 75T cell culture flask (SPL, Cat. No. 71075), 175T cell culture flask (SPL, Cat. No. 71175), 96-well cell culture plate (SPL, Cat. No. 30096), PBS pH 7.4 (Gibco, Cat. No. 10010-023; Lot. No. 2509235), TrypLE™ Express (Gibco, Cat. No. 12605-010; Lot. No. 2323417), Cell Counter (Hematocytometer)(As one, Cat. No. 4-458-01), and 0.4% Trypan Blue Solution (DYNEBIO, Cat. No. CBT3710; Lot. No. 20221111) were used.
(§2) The compounds of Examples were completely dissolved in DMSO (Sigma-Aldrich Cat. No. D2438, Lot. No. RNBL7287) and used in the experiment. 3×10^4 cells were seeded for each well of a 96-well plate (SPL), and the cells were cultured in total volume of 150 μl. Each compound was diluted 3-folds from the highest concentration of 3000 nM to the lowest concentration of 0.46 nM. After treating the compound to each well to make the total volume of 200 μl, it was cultured in a CO2 incubator (Thermo Fisher Science, Cat. No. 4111) for 5 days. Then, after treating EZ-Cytox (DOGEN, Cat.NO. EZ-3000, Lot. No. DLS2308) 20 μl in each well, it was cultured in CO2 incubator for 4 hours. The absorbance of the completely cultured sample was measured by setting the wavelength of a plate reader (BMG Labtech, CLARIOstar Plus) to […], and was measured after shaking for 3 minutes in a plate reader before measurement.
(§3) (A: IC50 is less than 20 nM, B: IC50 is 50 nM or less, C: IC50 is 100 nM or less)

NCI-H69 (H69) cell line = assay: Cell viability assay for NCI-H69 cell line; conditions: Homo sapiens, NCI-H69, 120 h, 5 days, EZ-Cytox, 0.46-3000 nM
Excerpt: as §1, §2, §3

Value (luminescence value, PLK1-HiBit) (PLK1) | Structure (SMILES) | IC50 [1] [µM] | IC50 (NCI-H69 (H69) cell line) [µM]
0.165 | CC[C@@H]1C(=O)N(C)c2cnc(Nc3ccc(C(=O)NCC4CCN(CC5CCN(c6ccc(NC7CCC(=O)NC7=O)cc6)CC5)CC4)cc3OC)nc2N1C1CCCC1 (stereo partly drawn) [Compound 13, 4-(((R)-8-cyclopentyl-7-ethyl-5-methyl-6-oxo-5,6,7,8-tetrahydropteridin-2-yl)amino)-N-((1-((1-(4-((2,6-dioxopiperidin-3-yl)amino)phenyl)piperidin-4-yl)methyl)piperidin-4-yl)methyl)-3-methoxybenzamide] | < 0.02 | ≤ 0.1
0.269 | CC[C@@H]1C(=O)N(C)c2cnc(Nc3ccc(C(=O)NC4CCN(C(=O)CCN5CCN(c6ccc(NC7CCC(=O)NC7=O)cc6)CC5)CC4)cc3OC(F)(F)F)nc2N1C1CCCC1 (stereo partly drawn) [Compound 14, 4-(((R)-8-cyclopentyl-7-ethyl-5-methyl-6-oxo-5,6,7,8-tetrahydropteridin-2-yl)amino)-N-(1-(3-(4-(4-((2,6-dioxopiperidin-3-yl)amino)phenyl)piperazin-1-yl)propanoyl)piperidin-4-yl)-3-(trifluoromethoxy)benzamide] | < 0.02 | ≤ 0.05
0.345 | CC[C@@H]1C(=O)N(C)c2cnc(Nc3ccc(-c4nnc(CNC5CCN(C(=O)C(N)CN6CCN(c7ccc(C8CCC(=O)NC8=O)cc7)CC6)CC5)o4)cc3OC)nc2N1C1CCCC1 (stereo partly drawn) [Compound 15, 3-(4-(4-(2-amino-3-(4-(((5-(4-(((R)-8-cyclopentyl-7-ethyl-5-methyl-6-oxo-5,6,7,8-tetrahydropteridin-2-yl)amino)-3-methoxyphenyl)-1,3,4-oxadiazol-2-yl)methyl)amino)piperidin-1-yl)-3-oxopropyl)piperazin-1-yl)phenyl)piperidine-2,6-dione] | ≤ 0.05 | ≤ 0.1
0.263 | CC[C@@H]1C(=O)N(C)c2cnc(Nc3ccc(-c4nnc(CNC5CCC(N6CCC(NCc7ccc(C8CCC(=O)NC8=O)cc7)CC6)CC5)o4)cc3OC)nc2N1C1CCCC1 (stereo partly drawn) [Compound 16, 3-(4-(((1-((1r,4r)-4-(((5-(4-(((R)-8-cyclopentyl-7-ethyl-5-methyl-6-oxo-5,6,7,8-tetrahydropteridin-2-yl)amino)-3-methoxyphenyl)-1,3,4-oxadiazol-2-yl)methyl)amino)cyclohexyl)piperidin-4-yl)amino)methyl)phenyl)piperidine-2,6-dione] | ≤ 0.05 | ≤ 0.1
0.172 | CC[C@@H]1C(=O)N(C)c2cnc(Nc3ccc(-c4nnc(CNC5CCC(NCC6CCN(c7ccc(C8CCC(=O)NC8=O)cc7F)CC6)CC5)o4)cc3OC)nc2N1C1CCCC1 (stereo partly drawn) [Compound 17, 3-(4-(4-((((1r,4r)-4-(((5-(4-(((R)-8-cyclopentyl-7-ethyl-5-methyl-6-oxo-5,6,7,8-tetrahydropteridin-2-yl)amino)-3-methoxyphenyl)-1,3,4-oxadiazol-2-yl)methyl)amino)cyclohexyl)amino)methyl)piperidin-1-yl)-3-fluorophenyl)piperidine-2,6-dione] | < 0.02 | ≤ 0.05
0.111 | CC[C@@H]1C(=O)N(C)c2cnc(Nc3ccc(C(=O)NC4CCC(NCC5CCN(c6ccc(C7CCC(=O)NC7=O)cc6F)CC5)CC4)cc3OC)nc2N1C1CCCC1 (stereo partly drawn) [Compound 18, 4-(((R)-8-cyclopentyl-7-ethyl-5-methyl-6-oxo-5,6,7,8-tetrahydropteridin-2-yl)amino)-N-((1r,4R)-4-(((1-(4-(2,6-dioxopiperidin-3-yl)-2-fluorophenyl)piperidin-4-yl)methyl)amino)cyclohexyl)-3-methoxybenzamide] | < 0.02 | < 0.02
